Patent US20220288026A1, “METHODS OF TREATING KIDNEY DISEASES” (priority 2019, published 2022)
“Also recorded” adds a separate entry of the source. Where two headings read alike, the source gives them in different places.

Experiments:
[1] = system: kidney tissue of g-ddY mice; experiment: Ingenuity Pathway Analysis (IPA) canonical pathways, g-ddY kidney RNA-seq; assay type: in vivo, mouse; settings: 30 mg/kg/day
Experimental: (§1) RNA isolation and sequencing libraries were generated using standard protocols. Sequencing was performed using an Illumina NextSeq500 using manufacturer's instructions with a read length of 75 bp and a read depth of 30 million. Raw data was assembled to FASTQ files. Following QC analysis, high quality sequencing reads (e.g., reads with a Phred quality score >36) were aligned to the mouse reference genome (GRCm38-mm10) using the default parameters of the align algorithm and transcript count tables of each library was generated using the default parameters of the featureCounts algorithm of the RSubread package (Liao Y, Smyth G K, Shi W, 2019). High quality sequencing reads mapped to 27,129 genes. Following additional QC of low count filtering (i.e. transcripts <10 counts across all samples), 16,207 genes were identified and used for further analysis. The remaining sequencing read counts of the included 16,207 genes were normalized to library size, log-transformed, and were quantified as counts per million (CPM). Select RNA-seq counts were validated using qPCR.

[2] = system: primary human renal mesangial cells (HRMCs); experiment: Proliferation (BrdU) of HRMCs stimulated with IgA-containing immune complexes; assay type: cell-based
From the text: Primary human mesangial cells in a culture were stimulated with pathogenic galactose deficient (Gd)-IgA containing immune complexes isolated from human IgA nephropathy patients.
Specifically, pathogenic IgA-containing immune complexes were isolated from serum from either IgA nephropathy patients or age, gender and ethnicity-matched healthy individuals. Frozen serum was purchased from BioIVT and IgA-containing immune complexes were purified using jacalin affinity chromatography. […] Purified IgA-containing immune complexes were concentrated using a 100K Amicon filtration unit and the amount of total IgA and galactose-deficient IgA (Gd-IgA) in the immune complexes was measured by ELISA (ThermoFisher and IBL America, respectively). […] See, e.g., Novak et. al., Kidney International, 67, pp. 504-516; 2005; Novak et. al., Nephrol. Dial. Transplant, 26, pp. 3451-3457; 2011; Liang et. al., Cell Physiol. Biochem., 36, pp. 1793-1808; 2015; Nguyen et. al., Clin. Kidney J., 12 (2), pp, 232-238; 2019.

[3] = system: g-ddY mice; experiment: UACR (albuminuria) in g-ddY mouse model of IgA nephropathy; assay type: in vivo
From the text: The grouped ddY (g-ddY) mouse is a spontaneous model of early-onset IgA nephropathy characterized by IgA immune complex deposition in the mesangium of the kidney, leading to significant proteinuria, glomerular hypercellularity, mesangioproliferative glomerular lesions, glomerular sclerosis and reduced kidney function, all hallmarks of human IgA nephropathy (J Am Soc Nephrol 23: 1364-1374, 2012). Consistent with human IgA nephropathy, the mesangial IgA deposits in the g-ddY mouse are also accompanied by deposition of IgG and complement C3.

[4] = system: kidney tissue of g-ddY mice; experiment: IPA upstream regulator analysis, g-ddY kidney RNA-seq; assay type: in vivo, mouse; settings: 30 mg/kg/day
[5] = system: kidney tissue of g-ddY mice
[6] = system: kidney tissue of g-ddY mice; experiment: Gene Set Enrichment Analysis (GSEA) hallmark gene sets, g-ddY kidney RNA-seq; assay type: in vivo, mouse
Experimental: as §1

[7] = system: patients with diabetic kidney disease (DKD); settings: cited from earlier work
[8] = 10 mg/kg/day vs untreated control
[9] = 20 mg/kg/day vs untreated control
[10] = 30 mg/kg/day vs untreated control

With `CCCCN(CCCC)C(=O)CN1C[C@H](c2ccc3c(c2)OCO3)[C@@H](C(=O)O)[C@@H]1c1ccc(OC)cc1` [atrasentan, (2R,3R,4S)-4-(1,3-benzodioxol-5-yl)-1-[2-(dibutylamino)-2-oxoethyl]-2-(4-methoxyphenyl)pyrrolidine-3-carboxylic acid] the “IPA: effect on signaling pathways” value [1] was “reduced NF-κB signaling, IL-6 pathway signaling (e.g., STAT3), and PDGF signaling”, the NF-κB signaling [1] was “reduced NF-κB signaling” and the PDGF signaling [1] was “reduced PDGF signaling”. For the same compound, the “basal cell proliferation of HRMCs” value ([2]; IgA containing serum fractions from healthy controls) was “no effect on basal cell proliferation”, the “hyperproliferation of HRMCs induced by IgA containing immune complexes” value ([2]; immune complexes from three patients with IgA nephropathy) was “reduces the proliferation; also recorded: significantly attenuated the hyperproliferation” and the “UACR reduction compared to control group (un-paired t-test)” value (“UACR reduction compared to control group” for short) ([3]; 10 mg/kg/day) was “not significant”. For the same compound, the “mice with reduced albuminuria/proteinuria” value ([3]; 10 mg/kg/day group) was “⅔”, the “albuminuria compared to baseline (paired t-test)” value (shortened to “albuminuria compared to baseline”) ([3]; 10 mg/kg/day, approximately 5 days) was “not significantly changed from baseline” and the “UACR reduction compared to control group” value ([3]; 20 mg/kg/day, P=0.0498) was “statistically significant compared to the control group”. The “albuminuria compared to baseline” value ([3]; 20 mg/kg/day, approximately 5 days, P=0.0593) was “reduced from baseline to a similar extent”, the “UACR reduction compared to control group” value ([3]; 30 mg/kg/day, P=0.029) was “statistically significant compared to the control group” and the “albuminuria compared to baseline” value ([3]; 30 mg/kg/day, approximately 5 days, P=0.0002) was “reduced albuminuria from baseline”. For the same compound, the “albuminuria reduction from baseline” value ([3]; 20 and 30 mg/kg/day, approximately 5 days) was > 60%, the “Predicted Activation State 26s Proteasome” value [4] was “Inhibited” and the “Predicted Activation State ADGRF5” value [4] was “Activated”. The “Predicted Activation State AGT” value [4] was “Inhibited”, the “Predicted Activation State BMP2” value [4] was “Inhibited” and the “Predicted Activation State CCL5” value [4] was “Inhibited”. The “Predicted Activation State CCN5” value [4] was “Activated”, the “Predicted Activation State CCR2” value [4] was “Inhibited” and the “Predicted Activation State CD40LG” value [4] was “Inhibited”. The “Predicted Activation State CG” value [4] was “Inhibited”, the “Predicted Activation State CHRM3” value [4] was “Inhibited” and the “Predicted Activation State CSF2” value [4] was “Inhibited”. The “Predicted Activation State CSF3” value [4] was “Inhibited”, the “Predicted Activation State CXCL12” value [4] was “Inhibited” and the “Predicted Activation State DKK1” value [4] was “Activated”. For the same compound, the “Predicted Activation State EDN1” value [4] was “Inhibited”, the “Predicted Activation State EDNRA” value [4] was “Inhibited” and the “Predicted Activation State EGF” value [4] was “Inhibited”. The “Predicted Activation State F2R” value [4] was “Inhibited”, the “Predicted Activation State F3” value [4] was “Inhibited” and the “Predicted Activation State FAS” value [4] was “Activated”. The “Predicted Activation State FCGR1A” value [4] was “Inhibited”, the “Predicted Activation State FGF2” value [4] was “Inhibited” and the “Predicted Activation State FGF23” value [4] was “Inhibited”. The “Predicted Activation State GDF2” value [4] was “Inhibited”, the “Predicted Activation State GPER1” value [4] was “Inhibited” and the “Predicted Activation State HGF” value [4] was “Inhibited”. For the same compound, the “Predicted Activation State HTR7” value [4] was “Inhibited”, the “Predicted Activation State IFNA2” value [4] was “Inhibited” and the “Predicted Activation State IFNAR1” value [4] was “Inhibited”. The “Predicted Activation State IFNG” value [4] was “Inhibited”, the “Predicted Activation State IGF1” value [4] was “Inhibited” and the “Predicted Activation State IGF1R” value [4] was “Activated”. For the same compound, the “Predicted Activation State IL1A” value [4] was “Inhibited”, the “Predicted Activation State IL1B” value [4] was “Inhibited” and the “Predicted Activation State IL2” value [4] was “Inhibited”. The “Predicted Activation State IL3” value [4] was “Inhibited”, the “Predicted Activation State IL6” value [4] was “Inhibited” and the “Predicted Activation State IL6R” value [4] was “Inhibited”. For the same compound, the “Predicted Activation State IL10” value [4] was “Inhibited”, the “Predicted Activation State IL21” value [4] was “Inhibited” and the “Predicted Activation State IL33” value [4] was “Inhibited”. The “Predicted Activation State ILR4” value [4] was “Inhibited”, the “Predicted Activation State Ifn gamma” value [4] was “Inhibited” and the “Predicted Activation State Ige” value [4] was “Inhibited”. The “Predicted Activation State LDL” value [4] was “Inhibited”, the “Predicted Activation State LGR5” value [4] was “Activated” and the “Predicted Activation State Laminin (complex)” value [4] was “Activated”. For the same compound, the “Predicted Activation State NFkB (complex)” value [4] was “Inhibited”, the “Predicted Activation State NRG1” value [4] was “Inhibited” and the “Predicted Activation State OSM” value [4] was “Inhibited”. For the same compound, the “Predicted Activation State PDGF BB” value [4] was “Inhibited”, the “Predicted Activation State PDGFB” value [4] was “Inhibited” and the “Predicted Activation State PF4” value [4] was “Inhibited”. The “Predicted Activation State PI3K (complex)” value [4] was “Inhibited”, the “Predicted Activation State PLA2R1” value [4] was “Activated” and the “Predicted Activation State PRL” value [4] was “Inhibited”. The “Predicted Activation State PROKR1” value [4] was “Activated”, the “Predicted Activation State PTGER4” value [4] was “Activated” and the “Predicted Activation State Pdgf (complex)” value [4] was “Inhibited”. For the same compound, the “Predicted Activation State SMO” value [4] was “Activated”, the “Predicted Activation State TCR” value [4] was “Inhibited” and the “Predicted Activation State TGFB1” value [4] was “Inhibited”. The “Predicted Activation State TGFB2” value [4] was “Inhibited”, the “Predicted Activation State TGFB3” value [4] was “Inhibited” and the “Predicted Activation State TLR3” value [4] was “Inhibited”. The “Predicted Activation State TLR9” value [4] was “Inhibited”, the “Predicted Activation State TNF” value [4] was “Inhibited” and the “Predicted Activation State TNFRSF1A” value [4] was “Inhibited”. The “Predicted Activation State TNFSF11” value [4] was “Inhibited”, the “Predicted Activation State TNFSF12” value [4] was “Inhibited” and the “Predicted Activation State TREM1” value [4] was “Inhibited”. For the same compound, the “Predicted Activation State TSLP” value [4] was “Inhibited”, the “Predicted Activation State TYROBP” value [4] was “Inhibited” and the “Predicted Activation State VEGFA” value [4] was “Inhibited”. The “Predicted Activation State VEGFB” value [4] was “Activated”, the “Predicted Activation State WNT3A” value [4] was “Inhibited” and the “ET1 gene signature genes downregulated” value [5, 8] was “Grk5, Mllt3, Klf2, Pparg, Hgf, Edn1, Fos, Ptgs2, and IL-1b were downregulated”. For the same compound, the “ET1 gene signature genes upregulated” value [5, 8] was “Ccnd1, Ppara, Agt, Map2k2 and Hoxa9 were upregulated”, the “ET1 gene signature genes downregulated” value [5, 9] was “Nfatc1, Grk5, Klf2, Cav1, Pparg, Itga5, Myc, Ednra, Sell, Hgf, Mmp2, Edn1, Syk, Fos, and IL-1b were downregulated” and the “ET1 gene signature genes upregulated” value [5, 9] was “Ccdn1, Cat, Ppara, Map2k2, Hoxa9, Agt, and Egfr were upregulated”. For the same compound, the “ET1 gene signature genes downregulated” value [5, 10] was “downregulated genes Ednrb, Myc, Mllt3, Hdac7, Ednra, Itga5, Grk5, Pparg, Klf2, Hgf, Mmp2, Sell, Sphk1, Fos, Syk, Edn1, and IL-1b”, the “ET1 gene signature genes upregulated” value [5, 10] was “upregulated genes Ccnd1, Agt, Cat, Map2k2, Hoxa9, and Ppara” and the “ET1 (Edn1) gene expression” value ([5]; 10, 20, and 30 mg/kg/day) was “downregulated across all three doses”. The “NES HALLMARK_REACTIVE_OXYGEN_SPECIES_PATHWAY” value ([6]; 10 mg/kg/day vs. control) was 1.59, the “NES HALLMARK_REACTIVE_OXYGEN_SPECIES_PATHWAY” value ([6]; 20 mg/kg/day vs. control) was 1.61 and the IL-6 signaling ([6]; 30 mg/kg/day) was “reduced IL-6 signaling”. For the same compound, the “cell proliferation associated signaling (mitotic spindle and G2M checkpoint)” value ([6]; 30 mg/kg/day) was “reduced cell proliferation associated signaling”, the inflammatory response signaling ([6]; 30 mg/kg/day) was “reduced inflammatory response signaling” and the “NES HALLMARK_REACTIVE_OXYGEN_SPECIES_PATHWAY” value ([6]; 30 mg/kg/day vs. control) was 1.98. The “GSEA: TNFα signaling via NF-κB, epithelial mesenchymal transition, inflammatory response, IL6-JAK-STAT3 signaling, mitotic spindle, G2M checkpoint” value ([6]; 10, 20, and 30 mg/kg/day) was “concordant negative enrichment” and the “risk of renal events (doubling of serum creatinine or end-stage kidney disease)” value [7] was “significantly reducing the risk of renal events”.
